Source: patent US20150253327A1, “DIAGNOSIS AND TREATMENT OF ASPIRIN-EXACERBATED RESPIRATORY DISEASE (AERD)” (BRIGHAM AND WOMEN'S HOSPITAL, INC., priority 2012, published 2015)

What was measured:
[1] = extracellular milieu (ref 43); cited from earlier work
mice = settings: pathway depends on platelet associated P2Y12 receptors (ref 49); cited from earlier work
human platelets = settings: exogenous cysLTs; inventors' previous work (ref 49); cited from earlier work
[2] = test system: fMLP-stimulated granulocytes; experiment: Suppression of fMLP-induced LTB4 generation by granulocytes from subjects with AERD; format: cell-based, human; settings: pretreatment of granulocytes from subjects with AERD; FIG. 12B-12C
Description: FIG. 12A depicts a graph of percentages of platelet-adherent neutrophils (determined by CD61^+ expression) in whole blood from eight subjects with AERD plotted against quantity of LTB4 generated by fMLP-stimulated granulocytes from the same individuals. Percent suppression of fMLP-induced LTB4 by pretreatment with (FIG. 12B) PGE2 or (FIG. 12C) the EP2 receptor-specific agonist was plotted against percentages of platelet-adherent neutrophils in the peripheral blood of each subject. Effect size, determined with Pearson correlation coefficient, is denoted as an r value.
Platelet-rich plasma was removed from whole peripheral blood by centrifugation, washed, and resuspended at a concentration of 1×10^9 platelets/mL. […] Granulocytes were counted and a portion was stripped of adherent platelets by incubation with 0.05% trypsinethylenediaminetetraacetic acid for 15 minutes at 37° C.^17 Removal of adherent platelets was confirmed by cytofluorographic analysis of samples of the granulocytes before and after trypsinization. […]
The percentage of platelet-adherent neutrophils (as determined by CD61+ expression) in the whole blood of subjects with AERD was positively correlated with the amount of LTB4 generated by fMPL-stimulation of granulocytes from the same subjects (FIG. 12A). […]

## CCCCC/C=C\C\C=C/C=C/C=C/[C@@H]1O[C@H]1CCCC(=O)O [LTA4, leukotriene (LT)A4]
[1]
  extracellular half-life: less than 5 seconds

## CCCCC/C=C\C\C=C/C=C/C=C/[C@@H](SC[C@H](N)C(=O)O)[C@@H](O)CCCC(=O)O [LTE4]
mice
  pulmonary eosinophilia: markedly potentiates pulmonary eosinophilia
Human platelets
  adherence of platelets to granulocytes: do not directly cause human platelets to adhere to granulocytes

## CCCCC[C@H](O)/C=C/[C@H]1[C@H](O)CC(=O)[C@@H]1C/C=C\CCCC(=O)O [PGE2]
[2]
  suppression of leukotriene production (fMLP-induced LTB4): able to suppress leukotriene production
